In patent US4272437A, “Antibacterial agents, and 4-thio azetidinone intermediates” (priority 1979, dated 1981):
Converted amounts (≈) assume the structure as drawn. Like-named read-outs stand apart in the source and are kept apart here.

Legend:
[1] = test system: Gram-negative and Gram-positive organisms; conditions: literature; cited from earlier work
[2] = test system: β-lactamases; conditions: literature; cited from earlier work
[3] = test system: Str. pneumoniae A-9585; assay: MIC, tube dilution, Streptococcus pneumoniae A9585; type: cell-based; conditions: Streptococcus pneumoniae, A9585, Str. pneumoniae A9585; overnight 37° C., Nutrient Broth; read-out: Minimum Inhibitory Concentration (M.I.C.)
Description: (§1) Representative compounds of the present invention were subjected to in vitro antibiotic screening against a variety of microorganisms.

[4] = test system: Str. pyogenes A-9604; assay: MIC, tube dilution, Streptococcus pyogenes A9604; type: cell-based; conditions: Streptococcus pyogenes, A9604, Str. pyogenes A9604; overnight 37° C., Nutrient Broth; read-out: Minimum Inhibitory Concentration (M.I.C.)
Description: as §1

[5] = test system: Staph. aureus A-9537; assay: MIC, tube dilution, Staphylococcus aureus A9537; type: cell-based; conditions: Staphylococcus aureus, A9537, Staph. aureus A9537; overnight 37° C., Nutrient Broth; read-out: Minimum Inhibitory Concentration (M.I.C.)
Description: as §1

[6] = test system: Staph. aureus A-9537 and 50% serum; assay: MIC, tube dilution, Staph. aureus A9537 + 50% serum; type: cell-based, Staphylococcus aureus; conditions: Staphylococcus aureus, overnight 37° C., read-out: Minimum Inhibitory Concentration (M.I.C.)
Description: as §1

[7] = test system: Staph. aureus (Pen-Res) A-9606; assay: MIC, tube dilution, Staphylococcus aureus A9606 (Pen-Res); type: cell-based; conditions: Staphylococcus aureus, Staph. aureus A9606 (Pen-Res); overnight 37° C.; read-out: Minimum Inhibitory Concentration (M.I.C.)
Description: as §1

[8] = test system: Staph. aureus (Meth-Res) A-15097; assay: MIC, tube dilution, Staphylococcus aureus A15097 (Meth-Res); type: cell-based; conditions: Staphylococcus aureus, Staph. aureus A15097 (Meth-Res); overnight 37° C.; read-out: Minimum Inhibitory Concentration (M.I.C.)
Description: as §1

[9] = test system: Str. faecalis A-20688; assay: MIC, tube dilution, Streptococcus faecalis A20688; type: cell-based; conditions: Enterococcus faecalis, A20688, Str. faecalis A20688; overnight 37° C.; read-out: Minimum Inhibitory Concentration (M.I.C.)
Description: as §1

[10] = test system: E. coli A-15119; assay: MIC, tube dilution, Escherichia coli A15119; type: cell-based; conditions: Escherichia coli, A15119, E. coli A15119; overnight 37° C.; read-out: Minimum Inhibitory Concentration (M.I.C.)
Description: as §1

[11] = test system: E. coli A-20341-1; assay: MIC, tube dilution, Escherichia coli A20341-1; type: cell-based; conditions: Escherichia coli, A203411, E. coli A20341-1; overnight 37° C.; read-out: Minimum Inhibitory Concentration (M.I.C.)
Description: as §1

[12] = test system: K. pneumoniae A-15130; assay: MIC, tube dilution, Klebsiella pneumoniae A15130; type: cell-based; conditions: Klebsiella pneumoniae, A15130, K. pneumoniae A15130; overnight 37° C.; read-out: Minimum Inhibitory Concentration (M.I.C.)
Description: as §1

[13] = test system: Klebsiella species A20468; assay: MIC, tube dilution, Klebsiella species A20468; type: cell-based; conditions: Klebsiella species (K. pneumoniae) A20468; overnight 37° C.; read-out: Minimum Inhibitory Concentration (M.I.C.)
Description: as §1

[14] = test system: Pr. mirabilis A-9900; assay: MIC, tube dilution, Proteus mirabilis A9900; type: cell-based; conditions: Proteus mirabilis, A9900, Proteus mirabilis A9900; overnight 37° C.; read-out: Minimum Inhibitory Concentration (M.I.C.)
Description: as §1

[15] = test system: Pr. morganii A-15153; assay: MIC, tube dilution, Proteus morganii A15153; type: cell-based; conditions: Morganella morganii, A15153, Proteus morganii A15153; overnight 37° C.; read-out: Minimum Inhibitory Concentration (M.I.C.)
Description: as §1

[16] = test system: Ser. marcescens A-20019; assay: MIC, tube dilution, Serratia marcescens A20019; type: cell-based; conditions: Serratia marcescens, A20019, Serratia marcescens A20019; overnight 37° C.; read-out: Minimum Inhibitory Concentration (M.I.C.)
Description: as §1

[17] = test system: Ent. cloacae A-9659; assay: MIC, tube dilution, Enterobacter cloacae A9659; type: cell-based; conditions: Enterobacter cloacae, A9659, Enterobacter cloacae A9659; overnight 37° C.; read-out: Minimum Inhibitory Concentration (M.I.C.)
Description: as §1

[18] = test system: Ent. cloacae A-9656; assay: MIC, tube dilution, Enterobacter cloacae A9656; type: cell-based; conditions: Enterobacter cloacae, A9656, Enterobacter cloacae A9656; overnight 37° C.; read-out: Minimum Inhibitory Concentration (M.I.C.)
Description: as §1

[19] = test system: Ps. aeruginosa A-9843A; assay: MIC, tube dilution, Pseudomonas aeruginosa A9843A; type: cell-based; conditions: Pseudomonas aeruginosa, A9843A, read-out: Minimum Inhibitory Concentration (M.I.C.), Pseudomonas aeruginosa A9843A; overnight 37° C.
Description: as §1

[20] = test system: Ps. aeruginosa A-21213; assay: MIC, tube dilution, Pseudomonas aeruginosa A21213; type: cell-based; conditions: Pseudomonas aeruginosa, A21213, Pseudomonas aeruginosa A21213; overnight 37° C.; read-out: Minimum Inhibitory Concentration (M.I.C.)
Description: as §1

[21] = test system: Proteus rettgeri A21203; assay: MIC, tube dilution, Proteus rettgeri A21203; type: cell-based; conditions: Providencia rettgeri, A21203, Proteus rettgeri A21203; overnight 37° C.; read-out: Minimum Inhibitory Concentration (M.I.C.)
Description: as §1

[22] = test system: Hemophilus influenzae A9833; assay: MIC, tube dilution, Hemophilus influenzae A9833; type: cell-based; conditions: Haemophilus influenzae; Hemophilus influenzae A9833; overnight 37° C.; read-out: Minimum Inhibitory Concentration (M.I.C.)
Description: as §1

[23] = test system: Proteus vulgaris A21559; assay: MIC, tube dilution, Proteus vulgaris A21559; type: cell-based; conditions: Proteus vulgaris, A21559, Proteus vulgaris A21559; overnight 37° C.; read-out: Minimum Inhibitory Concentration (M.I.C.)
Description: as §1

[24] = test system: E. coli A15119; assay: In vivo protection of mice, lethal infection with E. coli A15119; conditions: Escherichia coli, 2 treatments, read-out: PD50
Method: (§2) Representative compounds of the present invention were also tested in vivo in mice and their PD50 (dose of compound in mg/kg required to protect 50% of the treated mice against an otherwise lethal infection of a micro-organism) values determined with respect to the test organisms shown below.

[25] = test system: S. aureus A9537; assay: In vivo protection of mice, lethal infection with S. aureus A9537; conditions: Staphylococcus aureus, 2 treatments, read-out: PD50
Method: as §2

[26] = Mouse blood levels after intramuscular administration; type: in vivo; conditions: average of 6 mice, read-out: Mouse blood level
Method: Mouse blood levels after intramuscular administration of representative compounds of the present invention were determined and are reported in the table below.

| SMILES | β-lactamase inhibition [2] | MIC [3] | MIC [4] | MIC [5] | MIC [6] | MIC [7] | MIC [8] | MIC [9] | MIC [10] | MIC [11] | MIC [12] | MIC [13] | MIC [14] | MIC [15] | MIC [16] | MIC [17] | MIC [18] | MIC [19] | MIC [20] | MIC [21] | further results |
| --- | --- | --- | --- | --- | --- | --- | --- | --- | --- | --- | --- | --- | --- | --- | --- | --- | --- | --- | --- | --- | --- |
| CC(=O)NC=C[S+]([O-])C1=C(C(=O)O)N2C(=O)C(C(C)OS(=O)(=O)O)C2C1 (centres unmarked) | β-lactamase inhibitor | – | – | – | – | – | – | – | – | – | – | – | – | – | – | – | – | – | – | – | antibacterial activity [1]: some antibacterial activity |
| COC(=O)C1=C(C)OC2C(NC(c3ccccc3)(c3ccccc3)c3ccccc3)C(=O)N12 (centres unmarked) | weak inhibitor of β-lactamases | – | – | – | – | – | – | – | – | – | – | – | – | – | – | – | – | – | – | – | – |
| CC(=O)NCCC1=C(C(=O)O)N2C(=O)CC2S1 (centres unmarked) [Example 25, Sodium 2-(2'-Acetamido-1'-ethyl)penem-3-carboxylate] | – | 0.25 µg/mL | 0.25 µg/mL | 0.5 µg/mL | 8 µg/mL | 1 µg/mL | 125 µg/mL | 63 µg/mL | 4 µg/mL | 63 µg/mL | 16 µg/mL | > 125 µg/mL | 4 µg/mL | 4 µg/mL | 4 µg/mL | 4 µg/mL | 8 µg/mL | 16 µg/mL | > 125 µg/mL | 8 µg/mL | MIC [22]: > 125 µg/mL |
| O=C(O)C1=C(CCCNO)SC2CC(=O)N12 (centres unmarked) [Example 26] | – | 0.016 µg/mL (≈ 0.0655 µM) | 0.06 µg/mL (≈ 0.246 µM) | 0.13 µg/mL (≈ 0.532 µM) | 4 µg/mL | 8 µg/mL (≈ 32.8 µM) | 125 µg/mL (≈ 512 µM) | 63 µg/mL (≈ 258 µM) | 0.5 µg/mL (≈ 2.05 µM) | 63 µg/mL (≈ 258 µM) | 8 µg/mL (≈ 32.8 µM) | > 125 µg/mL | 1 µg/mL (≈ 4.09 µM) | 1 µg/mL (≈ 4.09 µM) | 1 µg/mL (≈ 4.09 µM) | 2 µg/mL (≈ 8.19 µM) | 1 µg/mL (≈ 4.09 µM) | 1 µg/mL (≈ 4.09 µM) | 125 µg/mL (≈ 512 µM) | 2 µg/mL (≈ 8.19 µM) | MIC [22]: 125 µg/mL (≈ 512 µM) |
| N[C@H]1C[C@H](C2=C(C(=O)O)N3C(=O)C[C@H]3S2)C1 [Example 75, 2-(trans 3-Aminocyclobutyl)-penem-3-carboxylic Acid] | – | 0.002 µg/mL (≈ 0.00832 µM) | 0.016 µg/mL (≈ 0.0666 µM) | 0.06 µg/mL (≈ 0.25 µM) | 0.5 µg/mL | 63 µg/mL (≈ 262 µM) | 4 µg/mL (≈ 16.6 µM) | 4 µg/mL (≈ 16.6 µM) | 1 µg/mL (≈ 4.16 µM) | 8 µg/mL (≈ 33.3 µM) | 4 µg/mL (≈ 16.6 µM) | > 125 µg/mL | 1 µg/mL (≈ 4.16 µM) | 4 µg/mL (≈ 16.6 µM) | 2 µg/mL (≈ 8.32 µM) | 4 µg/mL (≈ 16.6 µM) | 4 µg/mL (≈ 16.6 µM) | 63 µg/mL (≈ 262 µM) | 125 µg/mL (≈ 520 µM) | 1 µg/mL (≈ 4.16 µM) | MIC [23]: 2 µg/mL (≈ 8.32 µM); ED50 ([24]; IM, 6.5 × 10^5 organisms): 25 mg/kg; ED50 ([24]; PO, 6.5 × 10^5 organisms): > 50 mg/kg; ED50 ([25]; A9537, im, IM, 7.3 × 10^5 organisms): 0.4 mg/kg |
| N[C@H]1C[C@@H](C2=C(C(=O)O)N3C(=O)C[C@H]3S2)C1 [Example 78, 2-(cis-3'-Aminocyclobutyl)penem-3-carboxylic Acid] | – | 0.03 µg/mL (≈ 0.125 µM) | 0.06 µg/mL (≈ 0.25 µM) | 0.13 µg/mL (≈ 0.541 µM) | 2 µg/mL | 16 µg/mL (≈ 66.6 µM) | 8 µg/mL (≈ 33.3 µM) | 16 µg/mL (≈ 66.6 µM) | 2 µg/mL (≈ 8.32 µM) | 16 µg/mL (≈ 66.6 µM) | 4 µg/mL (≈ 16.6 µM) | > 125 µg/mL | 4 µg/mL (≈ 16.6 µM) | 8 µg/mL (≈ 33.3 µM) | 4 µg/mL (≈ 16.6 µM) | 4 µg/mL (≈ 16.6 µM) | 4 µg/mL (≈ 16.6 µM) | 16 µg/mL (≈ 66.6 µM) | > 125 µg/mL | 4 µg/mL (≈ 16.6 µM) | MIC [23]: 4 µg/mL (≈ 16.6 µM); ED50 ([24]; IM, 7 × 10^5 organisms): 28 mg/kg; ED50 ([25]; A9537, im, IM, 1 × 10^6 organisms): 0.63 mg/kg; ED50 ([25]; A9537, po, PO, 1 × 10^6 organisms): 2.5 mg/kg; concentration at 10 min ([26]; 10 minutes after IM 40 mg/kg): 29700 ng/mL; concentration at 20 min ([26]; 20 minutes after IM 40 mg/kg): 19300 ng/mL; concentration at 0.5 h ([26]; 30 minutes after IM 40 mg/kg): 12600 ng/mL; concentration at 0.75 h ([26]; 45 minutes after IM 40 mg/kg): 6600 ng/mL; concentration at 1 h ([26]; 60 minutes after IM 40 mg/kg): < 5000 ng/mL; concentration at 1.5 h ([26]; 90 minutes after IM 40 mg/kg): < 5000 ng/mL; concentration at 2 h ([26]; 120 minutes after IM 40 mg/kg): < 5000 ng/mL |
| O=C(O)C1=CSC2CC(=O)N12 (centres unmarked) [drawing 10] | no β-lactamase inhibitory activity | – | – | – | – | – | – | – | – | – | – | – | – | – | – | – | – | – | – | – | – |
| C[C@@H](O)[C@H]1C(=O)N2C(C(=O)O)=C(SCCN)C[C@H]12 [thienamycin] | – | – | – | – | – | – | – | – | – | – | – | – | – | – | – | – | – | – | – | – | antibacterial activity [1]: highly potent broad-spectrum antibiotic |
